The values below come from patent US10471054B2, “CDK1 inhibitors of acetyl chrysin mannich base derivatives, synthesis and use thereof” (priority 2016, dated 2019).

Broadly, the pKa is the negative logarithm of the acid dissociation constant. As usually defined, the IC50 is the concentration needed to halve the response being measured. One may read the bioavailability as the share of a dose that reaches the circulation, judged against a reference dose that is usually intravenous. What is called AUC(0-inf) is total exposure, with the tail of the curve extrapolated. Broadly, the log P is the decadic logarithm of the partition coefficient of the neutral form, usually between octanol and water. In general, logP refers to a log measure of how a compound divides between an organic and an aqueous phase.

One series is described as follows: pKa. Format: physicochemical.
The next series in a line: Dissolution in pH media. The format is physicochemical. The following applies: 37° C. The method, then:
CH-j is pKa 5.3, log P 1.63 in Octanol/Water at 37° C. […] (BA-j 77m/ml). CH-j belongs to BCS II (low solubility, high permeability) and solubility presents the pH dependence. […] CH-j is a pH dependent fast release. […] It is speculated that CH-j has more appropriate log P and solubility with more likely entering tissue cells than others solubility acetyl Chrysin Mannich base derivatives.

For the next series, the system named is BGC-823. In words: Anti-cancer cells proliferation activity (MTT, 48 h). The format is cell-based. The following applies: Homo sapiens, BGC-823, MTT. How it is done: Anti-cancer cells proliferationactivity of in vitro CH-j and CH-f were shown in TABLE 2 for the results of the screening of 5 cancers cells.
FIG. 2: The initial screening results of the anticancer activity of BGC-823 (MTT, for 48 h), and X-coordinate is the drug concentration (MTT, for 48 h), and Y-coordinate the cell survival rate (%) in vitro.

Series [1] is described as follows: Tissue distribution in rat, 2 h. The format is in vivo. The method, then:
The distribution results of CH-j tissue distribution were shown in FIG. 6, when CH-j 100 mg/kg rat by venous intravenous (i.v.) or oral (p.o.) 2 h. […] CH-j by oral in the stomach concentration of the large, about 2 time higher than other tissues. […] Compared with the intravenous administration, the oral administration was completely absorbed and the bioavailability was close to 100%.
FIG. 6: 2 h distribution of the drug (100 mg/kg) by CH-j rats: Y-coordinate is the concentration of CH-j (μg/g), by intravenous (i.v.), by oral (p.o.).

Series [2] in a line: Pharmacokinetics by oral in monkey (urine drug concentration-time curve). The format is in vivo. The following applies: rhesus, monkey (n = 6), 3 mg/kg.
A further series can be described thus: log P in Octanol/Water. The following applies: Octanol/Water at 37° C. Format: physicochemical.
In a further series the test system is HIF-1α. In words: HIF-1α expression in BGC-823, immune-printing. Format: cell-based. The following applies: 0, 2.5, 5, 10 μM for 1 h, then insulin. The method, then: BGC-823 was treated with 0, 2.5, 5, 10 μM CH-j for 1 h, then the 2 μM insulin was added, and 2 h were cultured, and the cells were collected and lysed.
FIG. 4: CH-j effect on the HIF-1 of BGC-823 was treated with 0, 2.5, 5, 10 μM CH-j for 1 h, then added 0.2 μM insulin culture for 24 h, and the HIF-1α and HIF-1β were determined by the immune imprinting method.

For series [3], the system named is MCF-7. In words: Autophagy in MCF-7. The format is cell-based. The settings on record: 50 μM for 9 h and 24 h.
The next series concerns MCF-7 and COS-7. Put plainly: .OH level, CCy-OH fluorescent probe imaging. Format: cell-based. The settings on record: 12.5 μM for 5 h.
Series [4] relates to MCF-7. In words: Hoechst 33258 fluorescence staining, apoptosis. The format is cell-based. The settings on record: 0, 5, 10, 20 μM for 24 h. The method, then: Hoechst 33258 is an active fluorescent dye with DNA specific binding, which is mainly combined with base area of DNA, which emits blue fluorescence when stimulated by ultraviolet light. The living cells emit uniform fluorescence, the apoptotic cells are bright blue fluorescence due to their chromatin fixation, dense and concentrated nuclei.
MCF-7 was treated with 0, 5, 10, 20 μM of CH-f and CH-j for 24 h, Hoechst 33258 fluorescence staining, and cell morphological changes were shown in FIG. 3-1. […] CH-f and CH-j are completely different from the cytotoxic drug HCPT, which appears to be apoptotic at low doses and necrotic at high doses in BGC-823.
FIG. 3-1 Hoechst 33258 staining results for MCF-7.

Turning to `CC(=O)c1c(O)c(CN2CCC(O)CC2)c2oc(-c3ccccc3)cc(=O)c2c1O` [CH-j, 6-Acetyl-5,7-dihydroxy-8-(4-hydroxy-piperidin-1-ylmethyl)-2-phenyl-chromen-4-one], the pKa in “pKa” was determined as 5.3. Further, the Dissolution in “Dissolution in pH media” (0.05M NaAC-HAC buffered solution (pH4.5)) is listed as 90%; in “Dissolution in pH media” (0.1M HCl (pH1.2)) it was 62%; in “Dissolution in pH media” (PBS (pH6.8)), under 1.0%; in the series “Dissolution in pH media” (water), under 0.1%. This molecule also gave an IC50 in the series on BGC-823 of 6.3 ± 1.13 µM. The “Concentration in the stomach relative to other tissues” value in series [1] (100 mg/kg rat, oral, 2 h) was “about 2 time”. In addition, the bioavailability in series [1] (in vivo, rat 100 mg/kg, oral compared with intravenous) was about 100%. The “Detection of prototype drug in blood, urine, tissues” value in [1] (rat) was “In the blood, urine, bile and tissues, the prototype drugs and metabolites can be detected”. Besides, the Blood-brain barrier passage entry in series [1] (rat 100 mg/kg, 2 h) was “able to pass the blood-brain barrier”. Besides, in series [2], the AUC(0-inf) was determined as 20.4 µM·h. Besides, the “log P” value in the series “log P in Octanol/Water” is recorded as 1.64. Moreover, in “log P in Octanol/Water” (octanol/water), the logP was 1.63. Moreover, the HIF-1α expression result with HIF-1α was “inhibited HIF-1α expression in a dose-dependent manner”. The Autophagy entry in the series with MCF-7 [3] is on record as “can cause autophagy”. Also, in the series with MCF-7 and COS-7, the “Level of .OH, red fluorescence” value is “present red fluorescence in MCF-7 and no in COS-7”. Moreover, the “Apoptosis by Hoechst 33258 staining” value in the series with MCF-7 [4] is reported as “apoptosis cell percentage in dose dependent increase”.
